{"source": "patent US9554988B2", "about": "“Method for preventing or treating skin tumor” (Galderma Research & Development, priority 2010, dated 2017)", "key": {"[1]": {"test_system": "human tumor epithelial breast cell lines or mouse mammary tumor cell line", "details": "activation of alpha-adrenoceptors; Vazquez et al. 2006, Bruzzone et al. 2008; cited from earlier work"}, "pancreatic cancer cells": {"test_system": "pancreatic cancer cells", "details": "Shen et al. 2008; cited from earlier work"}, "[2]": {"test_system": "Albino hairless SKH1-hr mice", "details": "for Median Week to Tumor (≧1 mm): 40 weeks treatment + 12 weeks observation, time at which one-half of group has one or more qualifying tumors; for Tumor Yield (≧1 mm): average number of tumors per survivor", "experimental": "Albino hairless SKH1-hr mice (36/sex/group) were treated for 40 weeks with UVR and brimonidine gel or vehicle according to the design in table 11. […] Topical treatments were performed approximately one hour before UVR on Monday, Wednesday and Friday of each week and approximately one hour after UVR Tuesday and Thursday of each week."}, "[3]": {"details": "0.18% topical + 600 RBU/week UVR"}}, "note": "Read-outs that look alike come from different tables or passages of the source."}
{"compound": "Clc1cccc(Cl)c1N=C1NCCN1", "note": "[clonidine]", "values": [{"measurement": "Proliferation of tumor cell lines", "setting": "[1]", "result": "enhanced proliferation"}]}
{"compound": "Cc1cccc([C@H](C)c2cnc[nH]2)c1C", "note": "[dexmedetomidine]", "values": [{"measurement": "Proliferation of tumor cell lines", "setting": "[1]", "result": "enhanced proliferation"}]}
{"compound": "Cc1cc(C(C)(C)C)c(O)c(C)c1CC1=NCCN1", "note": "[oxymetazoline]", "values": [{"measurement": "Proliferation of tumor cell lines", "setting": "[1]", "result": "enhanced proliferation"}]}
{"compound": "COC(=O)[C@@H]1[C@H]2C[C@H]3c4[nH]c5ccccc5c4CCN3C[C@@H]2CC[C@@H]1O", "note": "[yohimbine]", "values": [{"measurement": "Apoptosis of pancreatic cancer cells", "setting": "pancreatic cancer cells", "result": "induced apoptosis"}, {"measurement": "Proliferation of pancreatic cancer cells", "setting": "pancreatic cancer cells", "result": "inhibited the proliferation"}]}
{"compound": "Brimonidine tartrate", "values": [{"measurement": "Reduction of tumor yield (≧1 mm) compared to the vehicle group", "setting": "[2]; [3]", "result": 1.7, "unit": "fold"}, {"measurement": "Median Week to Tumor (≧1 mm)", "setting": "[2]; [3]", "result": 48, "unit": "Week"}, {"measurement": "Tumor Yield (≧1 mm)", "setting": "[2]; [3]", "result": 2.40, "unit": "tumors per survivor"}, {"measurement": "Members of the group that acquired one or more qualifying tumors (≧1 mm) within the 52-week study period", "setting": "[2]; 1% topical + 600 RBU/week UVR", "result": "less than one-half of the members of the groups acquired one or more qualifying tumors"}, {"measurement": "Reduction of tumor yield (≧1 mm) compared to the vehicle group", "setting": "[2]; 1% topical + 600 RBU/week UVR", "result": 4.7, "unit": "fold"}, {"measurement": "Median Week to Tumor (≧1 mm)", "setting": "[2]; 1% topical + 600 RBU/week UVR", "result": ">52", "unit": "Week"}, {"measurement": "Tumor Yield (≧1 mm)", "setting": "[2]; 1% topical + 600 RBU/week UVR", "result": 0.85, "unit": "tumors per survivor"}, {"measurement": "Members of the group that acquired one or more qualifying tumors (≧1 mm) within the 52-week study period", "setting": "[2]; 2% topical + 600 RBU/week UVR", "result": "less than one-half of the members of the groups acquired one or more qualifying tumors"}, {"measurement": "Reduction of tumor yield (≧1 mm) compared to the vehicle group", "setting": "[2]; 2% topical + 600 RBU/week UVR", "result": 8.1, "unit": "fold"}, {"measurement": "Median Week to Tumor (≧1 mm)", "setting": "[2]; 2% topical + 600 RBU/week UVR", "result": ">52", "unit": "Week"}, {"measurement": "Tumor Yield (≧1 mm)", "setting": "[2]; 2% topical + 600 RBU/week UVR", "result": 0.49, "unit": "tumors per survivor"}, {"measurement": "UV-induced skin tumor formation", "setting": "[2]; topical 0.18%, 1% and 2% concentrations", "result": "dose-dependent delay"}, {"measurement": "Sizes of tumors (tumor prevalence, FIG. 1)", "setting": "[2]; with increasing concentration, perceptible, 1 mm, 2 mm, 4 mm tumors, sexes combined", "result": "sizes of tumors were also reduced"}]}
